Biological target: Egl nine homolog 1 (Homo sapiens, UniProt Q9GZT9)
Test: For example, a HIF peptide for use in the HIF-PH assay is [methoxycoumarin]-[…]-amide. HIF-PH, e.g., HIF-PH2 (EGLN1), can be expressed in, e.g., insect Hi5 cells, and partially purified, e.g., through a SP ion exchange chromatography column.
Assay type: cell-based, BTI-TN-5B1-4

Egl nine homolog 1, sequence (Q9GZT9 whole entry): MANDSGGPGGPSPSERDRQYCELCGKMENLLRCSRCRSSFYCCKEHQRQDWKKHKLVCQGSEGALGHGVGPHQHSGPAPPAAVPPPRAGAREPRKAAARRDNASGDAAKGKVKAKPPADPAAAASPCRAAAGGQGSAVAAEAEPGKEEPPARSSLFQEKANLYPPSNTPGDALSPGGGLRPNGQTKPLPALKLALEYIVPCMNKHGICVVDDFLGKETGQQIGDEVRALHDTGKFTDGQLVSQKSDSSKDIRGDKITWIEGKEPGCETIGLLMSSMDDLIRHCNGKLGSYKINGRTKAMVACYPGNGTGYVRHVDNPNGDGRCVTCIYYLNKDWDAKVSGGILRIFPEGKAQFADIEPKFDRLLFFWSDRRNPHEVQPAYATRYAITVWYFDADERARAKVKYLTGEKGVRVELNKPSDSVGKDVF

`O=C(NCc1ccncc1)c1ncc2c(=O)n(Cc3ccccc3)ccc2c1O` was tested. Which IC50 did it give?
The IC50 was 190 nM.
